Positions count from the first letter of the chain named. Where two headings read alike, the source gives them in different places.
Legend:
[1] = target: T1, maize endosperm AGPase, large subunit variant RG (Q96R, D161G; numbering of SEQ ID NO: 20) (Zea mays, UniProt P55241+Q84PF5, D161G/Q96R); assay: Apparent kinetic constants with 3-PGA, 37° C., RG; format: biochemical; conditions: read-out: ATP Km
T1 sequence (P55241 46-516 D161G/Q96R): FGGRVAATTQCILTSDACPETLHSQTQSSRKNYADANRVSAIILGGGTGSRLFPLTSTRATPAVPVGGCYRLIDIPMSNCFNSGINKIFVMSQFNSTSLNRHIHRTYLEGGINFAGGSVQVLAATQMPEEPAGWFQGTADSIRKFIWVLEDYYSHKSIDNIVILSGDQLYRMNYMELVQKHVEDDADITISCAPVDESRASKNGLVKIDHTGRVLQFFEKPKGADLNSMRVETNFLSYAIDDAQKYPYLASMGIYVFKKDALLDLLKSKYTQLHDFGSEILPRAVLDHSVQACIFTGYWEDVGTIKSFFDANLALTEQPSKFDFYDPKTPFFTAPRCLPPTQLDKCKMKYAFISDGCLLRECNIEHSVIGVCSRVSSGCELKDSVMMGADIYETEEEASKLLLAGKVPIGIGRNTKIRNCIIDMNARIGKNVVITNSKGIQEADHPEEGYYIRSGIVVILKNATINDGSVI
T1 sequence (Q84PF5 1-474): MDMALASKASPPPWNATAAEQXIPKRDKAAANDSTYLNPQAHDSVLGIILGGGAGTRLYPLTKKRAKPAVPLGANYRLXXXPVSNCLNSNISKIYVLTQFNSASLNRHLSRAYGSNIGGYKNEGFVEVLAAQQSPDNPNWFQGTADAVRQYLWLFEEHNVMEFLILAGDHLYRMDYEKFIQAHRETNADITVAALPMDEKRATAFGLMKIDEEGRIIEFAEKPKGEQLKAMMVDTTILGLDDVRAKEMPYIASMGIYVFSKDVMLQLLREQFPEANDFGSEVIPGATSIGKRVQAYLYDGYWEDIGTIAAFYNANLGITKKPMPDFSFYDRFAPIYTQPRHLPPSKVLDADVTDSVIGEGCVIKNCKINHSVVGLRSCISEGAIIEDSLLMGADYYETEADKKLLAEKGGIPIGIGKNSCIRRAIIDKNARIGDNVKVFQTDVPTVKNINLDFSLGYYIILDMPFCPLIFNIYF
Text: The small and large subunit plasmids of maize endosperm AGPase (pMONcBt2 and pMONcSh2, respectively) (Giroux et al., 1996) were expressed in E. coli AC70R1-504 cells (Iglesias et al., 1993) as previously described (Boehlein et al., 2008).
(§1) An endpoint assay was used to determine the rate of the AGPase reaction by coupling the formation of PPi to a decrease in NADH concentration (Boehlein et al., 2008). […] The Michaelis constants (Km) were obtained by varying one substrate in the presence of saturating concentrations of the second substrate. The activation constants were obtained by varying the activator at fixed levels of both substrates. All reactions were performed at 37° C. and mixes were prewarmed before starting the reaction with enzyme. […] The absorbance at 340 nm was monitored after 30 min and the amount of PPi produced was determined from a standard curve using PPi in complete reaction mixtures lacking AGPase. Blank samples contained complete reaction mixtures without enzyme and the change in absorbance between the blank and the reaction was used to calculate the amount of PPi produced. […]
(§2) The apparent Michaelis constant and maximum velocity of each reaction was calculated from a V vs. S plots using nonlinear regression analysis and the following equation, v=VmaxS/(Km+S), where v is the measured velocity, Vmax is the maximum velocity, S is the substrate concentration. […]

[2] = target: T2, maize endosperm AGPase variant T142F (Zea mays, UniProt P55241+Q84PF5, T142F); assay: Apparent kinetic constants with 3-PGA, 37° C., T142F; format: biochemical; conditions: read-out: ATP Km, with 3-PGA, 37° C.
T2 construct: data of Boehlein et al., 2013
T2 sequence (P55241 46-516 T142F): T1 sequence (P55241 46-516 D161G/Q96R) with R51Q, T97F, G116D
T2 sequence (Q84PF5 1-474): T1 sequence (Q84PF5 1-474)
Method: as §1, §2
Each mutant, comprising 1, 2, 3 or 4 changes, was grown in a large scale culture, expressed and purified according to standard procedures (Boehlein et al., 2005). […] Next, the activation constant, Ka, was determined for each of the mutant enzymes. […]

[3] = test system: maize endosperm AGPase, wild type; conditions: Maize wt, presence of 3-PGA, ATP varied, Pi inhibition, P-MT; read-out: Km (ATP); cited from earlier work
[4] = target: T2, maize endosperm AGPase variant T142F; conditions: cited from earlier work

Nc1ncnc2c1ncn2[C@@H]1O[C@H](COP(=O)(O)OP(=O)(O)OP(=O)(O)O)[C@@H](O)[C@H]1O [ATP]
Km [1]: 63 µM | Km [2]: 200 µM | Km [3]: 110 µM | kcat ([4]; absence of 3-PGA): 53.8 s⁻¹ | Km ([4]; read-out: ATP Km, absence of 3-PGA): 1730 µM | Kd ([4]; read-out: Kia (dissociation constant for the E-ATP complex), absence of 3-PGA): 1500 µM
